The target of the first data set is T1, OCT1 (SLC22A1) (Homo sapiens, UniProt O15245).
T1 sequence (O15245 whole entry): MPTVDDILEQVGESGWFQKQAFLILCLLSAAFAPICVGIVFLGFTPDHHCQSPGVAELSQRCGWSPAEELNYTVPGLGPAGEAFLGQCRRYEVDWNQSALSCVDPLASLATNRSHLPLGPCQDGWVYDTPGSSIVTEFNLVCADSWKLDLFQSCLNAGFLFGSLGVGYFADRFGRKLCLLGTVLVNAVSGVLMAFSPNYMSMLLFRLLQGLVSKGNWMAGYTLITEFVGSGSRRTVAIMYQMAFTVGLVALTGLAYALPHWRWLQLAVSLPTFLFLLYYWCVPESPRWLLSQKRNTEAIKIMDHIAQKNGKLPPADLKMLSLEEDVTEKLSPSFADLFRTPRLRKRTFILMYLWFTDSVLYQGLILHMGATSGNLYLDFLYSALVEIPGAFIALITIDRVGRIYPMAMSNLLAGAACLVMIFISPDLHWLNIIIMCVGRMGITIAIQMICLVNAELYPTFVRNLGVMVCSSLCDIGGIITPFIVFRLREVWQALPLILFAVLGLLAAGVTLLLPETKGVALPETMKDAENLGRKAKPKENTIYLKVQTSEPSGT
The data set can be described thus: in vitro. Particulars: HEK293 cells that express human OCT1, probe 4-(4-(dimethylamino)styryl)-N-methylpyridinium.
One may read the inhibition as the drop in the measured response relative to a control, in per cent. As to `COc1cc(C(O)CN)ccc1O` (racemic) [NORMETANEPHRINE], the inhibition at 100 µM was -2.4%.

As for `NCC(CC(=O)O)c1ccc(Cl)cc1` (stereo not given) [BACLOFEN], the inhibition at 100 µM was determined as 20.7%.

Take `C[C@](N)(Cc1ccc(O)c(O)c1)C(=O)O` [METHYLDOPA]: the inhibition at 100 µM was -7.2%.

In the case of `OC[C@@H](O)[C@@H](O)[C@H](O)[C@H](O)CO` [MANNITOL], the inhibition at 100 µM was -1.4%.

`CCCC1O[C@@H]2C[C@H]3[C@@H]4CCC5=CC(=O)C=C[C@]5(C)[C@H]4[C@@H](O)C[C@]3(C)[C@]2(C(=O)CO)O1` (stereo not given in full) [BUDESONIDE]: the inhibition at 100 µM was determined as 38.2%.

As to `CN1C(=O)CN=C(c2ccccc2)c2cc(Cl)ccc21` [DIAZEPAM], the inhibition at 100 µM was determined as 5%.

`CC(=O)Oc1ccccc1C(=O)O` [ASPIRIN]: the inhibition at 100 µM is -5.7%.

As to `CC[C@H](C)C(=O)O[C@H]1C[C@H](O)C=C2C=C[C@H](C)[C@H](CC[C@@H](O)C[C@@H](O)CC(=O)O)[C@H]21` [PRAVASTATIN], the inhibition at 100 µM was determined as 5%.

In the case of `CN1CCN(C2=Nc3cc(Cl)ccc3Nc3ccccc32)CC1` [CLOZAPINE], the inhibition at 100 µM turned out to be 47.5%.

For `Cc1ccccc1C(OCCN(C)C)c1ccccc1` (stereo not given) [ORPHENADRINE], the inhibition at 100 µM turned out to be 77.6%.

Take `CCN(CC)CCNC(=O)c1ccc(N)cc1` [PROCAINAMIDE]: the inhibition at 100 µM is 26.5%.

With `CC(C)NCC(O)c1cc(O)cc(O)c1` (stereo not given) [METAPROTERENOL], the inhibition at 100 µM was determined as 12.6%.

`NCCCC(N)(C(=O)O)C(F)F` (stereo not given) [EFLORNITHINE]: the inhibition at 100 µM worked out at 5.5%.

Take `CC(C)(C)c1ccc(C(O)CCCN2CCC(C(O)(c3ccccc3)c3ccccc3)CC2)cc1` (stereo not given) [TERFENADINE]: the inhibition at 100 µM stood at 65.4%.

Consider `CC(=O)O[C@H]1C[C@@H]2CC[C@@H]3[C@H](CC[C@@]4(C)[C@H]3C[C@H]([N+]3(C)CCCCC3)[C@@H]4OC(C)=O)[C@@]2(C)C[C@@H]1[N+]1(C)CCCCC1` [PANCURONIUM], for which the inhibition at 100 µM was -10.3%.

With `CC(C)(C)NC[C@H](O)COc1nsnc1N1CCOCC1` [TIMOLOL], the inhibition at 100 µM was 39%.

On to `CC(=O)CC(c1ccccc1)c1c(O)c2ccccc2oc1=O` (stereo not given) [WARFARIN], for which the inhibition at 100 µM came out at 4%.

As to `Cn1cc[nH]c1=S` [METHIMAZOLE], the inhibition at 100 µM came out at 11.6%.

Regarding `NCC1(CC(=O)O)CCCCC1` [GABAPENTIN], the inhibition at 100 µM is 15.1%.

On to `CCN(CC)CC(=O)Nc1c(C)cccc1C` [LIDOCAINE], for which the inhibition at 100 µM is -2.3%.

`Cc1nc2n(c(=O)c1CCN1CCC(c3noc4cc(F)ccc34)CC1)CCCC2` [RISPERIDONE]: the inhibition at 100 µM was 39.3%.

Consider `CCCC(=O)Nc1ccc(OCC(O)CNC(C)C)c(C(C)=O)c1` (stereo not given) [ACEBUTOLOL], for which the inhibition at 100 µM was found to be 40.9%.

`COC(=O)CCc1ccc(OCC(O)CNC(C)C)cc1` (stereo not given) [ESMOLOL]: the inhibition at 100 µM was 31.2%.

Consider `CN1CCN2c3ccccc3Cc3ccccc3C2C1` (stereo not given) [MIANSERIN], for which the inhibition at 100 µM came out at 48.4%.

Turning to `CN(C)[C@@H]1C(O)=C(C(N)=O)C(=O)[C@@]2(O)C(O)=C3C(=O)c4c(O)cccc4[C@@](C)(O)[C@H]3C[C@@H]12` [TETRACYCLINE], the inhibition at 100 µM was found to be 10.4%.

As for `COc1ccc(Cc2nccc3cc(OC)c(OC)cc23)cc1OC` [PAPAVERINE], the inhibition at 100 µM came out at 66.3%.

Turning to `CC1=C(CC(=O)O)c2cc(F)ccc2/C1=C\c1ccc([S+](C)[O-])cc1` (stereo not given), the inhibition at 100 µM was determined as 27.1%.

`CCOC(=O)C1=C(C)NC(C)=C(C(=O)OC)C1c1cccc(Cl)c1Cl` (stereo not given) [FELODIPINE]: the inhibition at 100 µM stood at 15.5%.

In the case of `CC/C(=C(\c1ccccc1)c1ccc(OCCN(C)C)cc1)c1ccccc1` [TAMOXIFEN], the inhibition at 100 µM amounted to 72.1%.

For `NS(=O)(=O)c1cc(C(=O)O)c(NCc2ccco2)cc1Cl` [FUROSEMIDE], the inhibition at 100 µM was found to be 11.7%.

Regarding `COc1cc2nc(N3CCN(C(=O)C4COc5ccccc5O4)CC3)nc(N)c2cc1OC` (stereo not given) [DOXAZOSIN], the inhibition at 100 µM worked out at 85.6%.

`CNC(=C[N+](=O)[O-])NCCSCc1ccc(CN(C)C)o1` [RANITIDINE]: the inhibition at 100 µM was 28.8%.

Consider `CN1[C@@H]2C[C@@H](OC(=O)[C@H](CO)c3ccccc3)C[C@H]1[C@@H]1O[C@@H]12` [SCOPOLAMINE], for which the inhibition at 100 µM worked out at 43.9%.

For the compound `CCN(CC)CCCC(C)Nc1ccnc2cc(Cl)ccc12` (stereo not given) [CHLOROQUINE], the inhibition at 100 µM turned out to be 46%.

As for `COc1cc2c(cc1O)CC[C@@H]1[C@@H]2CC[C@]2(C)[C@@H](O)CC[C@@H]12` [2-METHOXYESTRADIOL], the inhibition at 100 µM stood at 74.3%.

For `CCOC(=O)[C@H](CCc1ccccc1)N[C@@H](C)C(=O)N1CCC[C@H]1C(=O)O`, the inhibition at 100 µM turned out to be 14.6%.

On to `O=C(O)Cc1ccccc1Nc1c(Cl)cccc1Cl` [DICLOFENAC], for which the inhibition at 100 µM is -3.7%.

For `CC(C)[N+]1(C)[C@@H]2CC[C@H]1C[C@@H](OC(=O)C(CO)c1ccccc1)C2` (stereo not given in full), the inhibition at 100 µM came to 43.4%.

Turning to `Cc1ccc(-c2cc(C(F)(F)F)nn2-c2ccc(S(N)(=O)=O)cc2)cc1` [CELECOXIB], the inhibition at 100 µM is 7.7%.

As for `CCC(C)(C)C(=O)O[C@H]1C[C@@H](C)C=C2C=C[C@H](C)[C@H](CC[C@@H]3C[C@@H](O)CC(=O)O3)[C@H]21` [SIMVASTATIN], the inhibition at 100 µM turned out to be 22.6%.

As to `C[C@H]1c2cccc(O)c2C(=O)C2=C(O)[C@]3(O)C(=O)C(C(N)=O)=C(O)[C@@H](N(C)C)[C@@H]3[C@@H](O)[C@@H]21` [DOXYCYCLINE], the inhibition at 100 µM was 27.4%.

In the case of `COc1ccc2c3c1O[C@H]1[C@@H](O)C=C[C@H]4[C@@H](C2)N(C)CC[C@@]341` [CODEINE], the inhibition at 100 µM turned out to be 39.1%.

With `CCS(=O)(=O)CCn1c([N+](=O)[O-])cnc1C` [TINIDAZOLE], the inhibition at 100 µM is 14.2%.

Consider `COc1cc([C@@H]2c3cc4c(cc3[C@@H](O[C@@H]3O[C@@H]5CO[C@@H](C)O[C@H]5[C@H](O)[C@H]3O)[C@H]3COC(=O)[C@H]23)OCO4)cc(OC)c1O` [ETOPOSIDE], for which the inhibition at 100 µM was determined as 7.5%.

Consider `CC(C)NCC(O)c1ccc(NS(C)(=O)=O)cc1` (stereo not given) [SOTALOL], for which the inhibition at 100 µM worked out at 31.8%.

As to `N[C@H]1C(O)O[C@H](CO)[C@@H](O)[C@@H]1O` (stereo not given in full) [GLUCOSAMINE], the inhibition at 100 µM is 13.9%.

Regarding `CCN(CC)CC#CCOC(=O)C(O)(c1ccccc1)C1CCCCC1` (stereo not given) [OXYBUTYNIN], the inhibition at 100 µM came out at 75.7%.

Consider `COc1ccc(CCN(C)CCCC(C#N)(c2cc(OC)c(OC)c(OC)c2)C(C)C)cc1OC` (racemic) [METHOXYVERAPAMIL], for which the inhibition at 100 µM amounted to 78.1%.

Take `O=C1NC(=O)C(c2ccccc2)(c2ccccc2)N1` [PHENYTOIN]: the inhibition at 100 µM is -2%.

As to `CC(C(=O)O)c1cccc(C(=O)c2ccccc2)c1` (stereo not given) [KETOPROFEN], the inhibition at 100 µM was -9.4%.

For the compound `Cc1cc(=O)n(-c2ccccc2)n1C` [ANTIPYRINE], the inhibition at 100 µM was determined as 20.7%.

Turning to `CN1[C@@H]2CC[C@H]1C[C@@H](OC(=O)C(CO)c1ccccc1)C2` (stereo not given in full) [ATROPINE], the inhibition at 100 µM stood at 76.5%.

For `C[C@]12CCC(=O)C=C1CC[C@@H]1[C@@H]2CC[C@]2(C)C(=O)CC[C@@H]12` [ANDROSTENEDIONE], the inhibition at 100 µM amounted to 65.1%.

For `C[C@H]1O[C@H](O[C@H]2[C@H](O)[C@@H](O)[C@@H](O[C@H]3[C@H](O)[C@@H](O)C(O)O[C@@H]3CO)O[C@@H]2CO)[C@H](O)[C@@H](O)[C@@H]1N[C@H]1C=C(CO)[C@@H](O)[C@H](O)[C@H]1O` (stereo not given in full) [ACARBOSE], the inhibition at 100 µM turned out to be 3.9%.

For `COc1cc2c(c(OC)c1OC)-c1ccc(OC)c(=O)cc1[C@@H](NC(C)=O)CC2` [COLCHICINE], the inhibition at 100 µM amounted to 31.9%.

For the compound `CC(=O)N[C@@H](CS)C(=O)O` [ACETYLCYSTEINE], the inhibition at 100 µM is 15.5%.

`N=C(N)NCCCCN` [AGMATINE]: the inhibition at 100 µM worked out at 2.1%.

Regarding `O=C(O)c1cc(/N=N/c2ccc(S(=O)(=O)Nc3ccccn3)cc2)ccc1O` [SULFASALAZINE], the inhibition at 100 µM was -3.7%.

Consider `CC(=O)N1CCN(c2ccc(OCC3COC(Cn4ccnc4)(c4ccc(Cl)cc4Cl)O3)cc2)CC1` (stereo not given) [KETOCONAZOLE], for which the inhibition at 100 µM amounted to 82.3%.

Consider `C=C[C@H]1C[N@@]2CC[C@H]1C[C@H]2[C@H](O)c1ccnc2ccc(OC)cc12` [QUININE], for which the inhibition at 100 µM was found to be 60.2%.

As for `Nc1nc2ncc(CNc3ccc(C(=O)N[C@@H](CCC(=O)O)C(=O)O)cc3)nc2c(=O)[nH]1` [FOLIC ACID], the inhibition at 100 µM was found to be 33%.

As to `CC(C)C(=O)Nc1ccc([N+](=O)[O-])c(C(F)(F)F)c1` [FLUTAMIDE], the inhibition at 100 µM was 34.1%.

`COCCc1ccc(OCC(O)CNC(C)C)cc1` (stereo not given) [METOPROLOL]: the inhibition at 100 µM came to 32.4%.

Turning to `Cc1cnc(C(=O)NCCc2ccc(S(=O)(=O)NC(=O)NC3CCCCC3)cc2)cn1` [GLIPIZIDE], the inhibition at 100 µM is -12.7%.

The data set is the same for the next values; noted with them: hek293.
As to `NC(N)=Nc1nc(CSCCC(N)=NS(N)(=O)=O)cs1` [FAMOTIDINE], the inhibition at 100 µM was 13.9%.

With `NNc1nncc2ccccc12` [HYDRALAZINE], the inhibition at 100 µM amounted to 6.5%.

For the compound `COc1cc(Cc2cnc(N)nc2N)cc(OC)c1OC` [TRIMETHOPRIM], the inhibition at 100 µM turned out to be 58.1%.

Turning to `C[N+](C)(C)CCO` [CHOLINE], the inhibition at 100 µM came to 21.3%.

Turning to `Cn1cnc([N+](=O)[O-])c1Sc1ncnc2nc[nH]c12` [AZATHIOPRINE], the inhibition at 100 µM was found to be 4.2%.

For `CNC[C@H](O)c1ccc(O)c(O)c1` [EPINEPHRINE], the inhibition at 100 µM is 29.1%.

The record behind these values is ChEMBL document CHEMBL1140113, “Structural requirements for drug inhibition of the liver specific human organic cation transport protein 1” (J Med Chem, 2008).
